Assay results reported in paper PMC8509398, “Proteolytic Cleavage of Bioactive Peptides and Protease-Activated Receptors in Acute and Post-Colitis” (International Journal of Molecular Sciences, 2021).
Residues, ends and D or L forms follow the SMILES beside them.

Key:
cathepsin G = target: T1, cathepsin G (Homo sapiens, UniProt P08311); assay: Cleavage of peptides by purified cathepsin G, MALDI-TOF/TOF; conditions: 25 nM protease, 10 µM peptide; for Incubation time at which the first cleavage or decrease of the full-length peptide was observed, cathepsin G: 37 °C, time points 2, 5, 10, 30 min; for TL disarming (D), Cathepsin G / TL unmasking (U), Cathepsin G: PAR-based peptides
T1 sequence (P08311 21-255): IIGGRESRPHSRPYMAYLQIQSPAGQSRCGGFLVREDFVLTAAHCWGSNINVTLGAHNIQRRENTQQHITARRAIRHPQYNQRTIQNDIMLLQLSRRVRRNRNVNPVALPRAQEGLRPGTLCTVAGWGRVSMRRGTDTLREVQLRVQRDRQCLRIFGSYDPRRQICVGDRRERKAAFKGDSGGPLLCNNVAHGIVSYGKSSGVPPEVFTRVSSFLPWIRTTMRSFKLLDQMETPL
From the text: (§1) Trypsin-like proteases included in the experiments are trypsin-1, -2 and -3, tryptase (Enzo LifeSciences), thrombin (Sigma-Aldrich) and cathepsin G (Sigma-Aldrich). Trypsin-1, -2 and -3 were produced as described by Koistinen et al. and Wu et al.. Two elastase-like enzymes, neutrophil elastase (Enzo LifeSciences, Farmingdale, NY, USA) and pancreatic elastase I (Sigma-Aldrich) were included as well. All enzymes were from human origin except for pancreatic elastase from porcine pancreas.
(§2) Reaction mixtures with purified enzymes were compiled in an identical way. […] Substance P was added as the standard peptide except for the reaction mixtures with substance P or bradykinin as the peptide of interest, where angiotensin II (Bachem) was added.
(§3) The TFA mixtures were thawed on ice and desalted using C18 zip-tips (Merck Millipore®, Burlington, MA, USA) with a capacity of 5 µg protein. Retained peptide fragments were eluted directly on the MALDI target plate. Next, 0.5 µL of a 2.5 mg/mL α-cyano-4-hydroxycinnamic acid (Sigma-Aldrich) matrix solution (in 70% acetonitrile, 0.1% TFA) was spotted on top of the sample. A 6-Peptide mixture Kit (AB Sciex, Framingham, MA, USA) containing bradykinin (2–9), angiotensin I, glu1-fibrinopeptide, ACTH (1–17), ACTH (18–39) and ACTH (7–38) was diluted with matrix and spotted on the plate as well.
(§4) MS and MS/MS data for peptide fragment identification were obtained with a MALDI-TOF/TOF instrument (4800 MALDI TOF/TOF™, Applied Biosystems, Waltham, MA, USA) and instrument parameters were set using 4000 Series Explorer™ software. MS spectra were recorded in positive reflector mode in a mass range from 500 to 4000 Da and laser intensity of 4500–4800 Hz. The spectra were calibrated using the calibration mixture mentioned above to a mass tolerance of 0.1 Da. MS/MS spectra were recorded with high-energy collision-induced dissociation and the laser intensity was increased by 10%.
(§5) Identified fragments were confirmed using the MS/MS spectra and mMass 5.5.0 by Martin Strohalm. The relative intensities of the fragments were calculated as the ratio of the intensity of the peak of interest to the intensity of the peak of the standard peptide.

pancreatic elastase I = pancreatic elastase I (Sus scrofa, UniProt P00772); assay: Cleavage of peptides by purified pancreatic elastase, MALDI-TOF/TOF; conditions: 25 nM protease, 10 µM peptide; for Incubation time at which the first cleavage or decrease of the full-length peptide was observed, pancreatic elastase: 37 °C, time points 2, 5, 10, 30 min; for TL disarming (D), Pancreatic Elastase / TL unmasking (U), Pancreatic Elastase: PAR-based peptides
pancreatic elastase I, sequence (P00772 27-266): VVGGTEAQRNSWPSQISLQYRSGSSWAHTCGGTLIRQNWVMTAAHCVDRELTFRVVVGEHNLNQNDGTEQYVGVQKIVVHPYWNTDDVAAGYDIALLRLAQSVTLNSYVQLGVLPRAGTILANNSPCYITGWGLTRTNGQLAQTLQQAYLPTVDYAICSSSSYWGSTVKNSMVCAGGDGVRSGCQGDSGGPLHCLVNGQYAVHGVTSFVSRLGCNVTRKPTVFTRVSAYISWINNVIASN
From the text: as §1, §2, §3, §4, §5

[1] = Cleavage of peptides by colonic tissue lysates from TNBS-induced colitis rat model, MALDI-TOF/TOF; conditions: 10 µM peptide, 20 µg/mL protein, 37 °C; for Processing by colonic samples, in words (comparison of control, post-colitis and acute colitis): rat colonic lysates, up to 30 min, n = 8 per group
Method: Adult male Sprague–Dawley rats (200–225 g; Charles River, Wilmington, MA, USA) were used in a previously described TNBS-induced acute and post-inflammatory model. Rats were housed at constant room temperature (22 ± 2 °C) and humidity (60%) with two rats per cage, unlimited access to water and food and on a 12 h–12 h light/dark cycle.
After an overnight fast, TNBS colitis was induced using a TNBS-enema (4 mg TNBS; Sigma-Aldrich, 50% ethanol) as described previously. Rats were anesthetized with a mixture of ketamine (35 mg/kg i.p.; Ketalar®, Pfizer, New York City, NY, USA) and xylazine (5 mg/kg i.p.; Rompun®, Bayer, Leverkusen, Germany), and the TNBS-enema or 0.9% saline was administered intrarectally using a flexible catheter (18 G, length 4.5 cm) to colitis and control rats, respectively. Animals were kept in a tail-up position for 1 min and were then allowed to recover in their cages with free access to water and food. […] For the post-colitis group (n = 8), a colonoscopy was performed starting from day 10 and repeated every 4 days until complete mucosal healing was observed. The rats were then sacrificed as well and colonic samples were taken.
Colonic lysates were prepared for studying their effects on cleavage patterns of added peptides with a MALDI-TOF/TOF assay. After sacrifice, a sample of approximately 50 mg of distal colon was taken from each rat. The colonic samples were immediately rinsed with Krebs solution, snap-frozen and stored at −80 °C until further processing. Sample preparation started with crushing the colonic samples on dry ice. Liquid nitrogen was used to prevent the loss of enzymatic activity due to temperature increases and the colon powders were stored at −80 °C for further experiments. […] After centrifugation, the supernatants were collected and used immediately to prepare the reaction mixtures, measure proteolytic activities with fluorogenic substrates and determine the protein content with a Bradford assay.
Colonic lysate was added to a peptide of interest to obtain the reaction mixtures with the colonic samples. Lysate and peptide were diluted so each mixture contained 10 µM peptide of interest and 20 µg/mL protein originating from the colonic tissue. These peptide and protein concentrations were based on research from Loew et al. and O’ Donoghue et al.. The mixtures were incubated at 37 °C for several incubation periods between 5 and 30 min. Afterward, the fragmentation reaction was stopped by adding trifluoroacetic acid (TFA; Alfa Aesar™, ThermoFisher, Waltham, MA, USA) to a final concentration of 2% and standard peptide (substance P, bradykinin or PAR3-based peptide) was added in a final concentration of 10 µM. Standard peptides were selected based on the mass of the peptides of interest. For each sample/peptide combination, a starting point was included as well. Here, TFA was added immediately after mixing the reaction constituents. Samples were stored at −80 °C for further MALDI-TOF/TOF experiments.
as §3
MS and MS/MS data for peptide fragment identification were obtained with a MALDI-TOF/TOF instrument (4800 MALDI TOF/TOF™, Applied Biosystems, Waltham, MA, USA) and instrument parameters were set using 4000 Series Explorer™ software. MS spectra were recorded in positive reflector mode in a mass range from 500 to 4000 Da and laser intensity of 4500–4800 Hz.

[2] = 37 °C, 2, 5, 10 and 30 min, stopped with 2% TFA
[3] = rat colonic lysate, 5-30 min, stopped with 2% TFA, MALDI-TOF/TOF relative intensity vs standard peptide, n = 8 animals

TL disarming (D), Cathepsin G (cathepsin G; 37 °C, 2, 5, 10 and 30 min) | TL unmasking (U), Cathepsin G (cathepsin G; 37 °C, 2, 5, 10 and 30 min) | TL disarming (D), Pancreatic Elastase (pancreatic elastase I; 37 °C, 2, 5, 10 and 30 min) | TL unmasking (U), Pancreatic Elastase (pancreatic elastase I; 37 °C, 2, 5, 10 and 30 min) | Incubation time after which processing was significant (decrease of full-length peptide or increase of fragment), acute colitis samples ([1]; rat colonic lysate, acute TNBS colitis, 5-30 min, stopped with 2% TFA, MALDI-TOF/TOF relative intensity vs standard peptide, n = 8 animals) [min] | Number of colonic samples in which the TL-sequence unmasking cleavage was observed, acute colitis ([1]; acute colitis lysates, n = 8, MALDI-TOF/TOF, PAR1-based after 30 min) | Number of colonic samples in which the TL-sequence unmasking cleavage was observed, post-colitis ([1]; post-colitis lysates, n = 8, MALDI-TOF/TOF, PAR1-based after 30 min) | Structure (SMILES) | Efficiency of the first cleavage in the peptide, Cathepsin G (cathepsin G; [2]) | Incubation time at which the first cleavage or decrease of the full-length peptide was observed, cathepsin G (cathepsin G) [min] | Efficiency of the first cleavage in the peptide, Pancreatic Elastase (pancreatic elastase I; [2]) | Incubation time at which the first cleavage or decrease of the full-length peptide was observed, pancreatic elastase (pancreatic elastase I) [min] | Processing by colonic samples, in words (comparison of control, post-colitis and acute colitis) ([1]; MALDI-TOF/TOF) | Incubation time after which processing was significant (decrease of full-length peptide or increase of fragment), control samples ([1]; rat colonic lysate, control, 5-30 min, stopped with 2% TFA, MALDI-TOF/TOF relative intensity vs standard peptide, n = 8 animals) | Incubation time after which processing was significant (decrease of full-length peptide or increase of fragment), post-colitis samples [1, 3]
 |  |  |  |  |  |  | CC[C@H](C)[C@H](NC(=O)[C@H](C)NC(=O)[C@H](CC(N)=O)NC(=O)[C@H](CCCCN)NC(=O)[C@H](Cc1ccccc1)NC(=O)[C@H](CC(C)C)NC(=O)[C@@H](NC(=O)[C@@H](NC(=O)[C@H](CC(C)C)NC(=O)[C@@H]1CCCN1C(=O)[C@@H](NC(=O)[C@H](CCC(N)=O)NC(=O)[C@H](CO)NC(=O)[C@H](CCCCN)NC(=O)[C@H](CCC(=O)O)NC(=O)[C@H](CO)NC(=O)[C@@H](NC(=O)[C@H](CCSC)NC(=O)[C@H](Cc1ccccc1)NC(=O)CNC(=O)CNC(=O)[C@@H](N)Cc1ccc(O)cc1)[C@@H](C)O)[C@@H](C)O)C(C)C)[C@@H](C)O)C(=O)N[C@H](C(=O)N[C@@H](CCCCN)C(=O)N[C@@H](CC(N)=O)C(=O)N[C@@H](C)C(=O)N[C@@H](Cc1ccc(O)cc1)C(=O)N[C@@H](CCCCN)C(=O)N[C@@H](CCCCN)C(=O)NCC(=O)N[C@@H](CCC(=O)O)C(=O)O)[C@@H](C)CC [β-endorphin] | +++ (ultrafast processing within 2 min) | 2 | +++ (ultrafast processing within 2 min) | 2 | cleaved more intensively by proteases in acute colitis samples |  | 
+++ (ultrafast processing within 2 min) | − | +++ (ultrafast processing within 2 min) | − | 30 |  |  | CC[C@H](C)[C@H](NC(=O)[C@@H]1CCCN1C(=O)[C@H](CC(C)C)NC(=O)[C@@H](NC(=O)[C@@H]1CCCN1C(=O)[C@H](CCCCN)NC(=O)[C@H](C)NC(=O)[C@H](CC(C)C)NC(=O)[C@H](CC(N)=O)NC(=O)[C@H](CC(N)=O)NC(=O)[C@@H](NC(=O)[C@H](CC(=O)O)NC(=O)[C@H](CC(N)=O)NC(=O)[C@H](CCC(=O)O)NC(=O)[C@H](CCSC)NC(=O)CN)[C@@H](C)O)[C@@H](C)O)C(=O)N[C@@H](CCCCN)C(=O)N[C@H](C(=O)N[C@@H](Cc1ccccc1)C(=O)N[C@@H](CCCNC(=N)N)C(=O)NCC(=O)N[C@@H](C)C(=O)N1CCC[C@H]1C(=O)N1CCC[C@H]1C(=O)N[C@@H](CC(N)=O)C(=O)N[C@@H](CO)C(=O)N[C@@H](Cc1ccccc1)C(=O)N[C@@H](CCC(=O)O)C(N)=O)[C@@H](C)O [PAR3-based] (H-GMENDTNNLAKPTLPIKTFRGAPPNSFE-NH2) |  |  |  |  | cleaved slowly | No C- or N-terminal fragments could be detected | trend towards an increase of the C-terminal fragment
− | − | − | − |  | five out of eight | two out of eight | CC[C@H](C)[C@H](NC(=O)[C@H](CO)NC(=O)[C@@H]1CCCN1C(=O)[C@@H](NC(=O)[C@H](CO)NC(=O)[C@H](CC(=O)O)NC(=O)[C@H](CC(=O)O)NC(=O)CNC(=O)CNC(=O)CNC(=O)[C@@H](NC(=O)[C@H](CO)NC(=O)CNC(=O)[C@H](CO)NC(=O)[C@H](CCC(=O)O)NC(=O)[C@H](CC(=O)O)NC(=O)[C@H](Cc1ccc(O)cc1)NC(=O)[C@@H](NC(=O)[C@H](CO)NC(=O)[C@@H]1CCCN1C(=O)[C@@H](NC(=O)[C@H](CCC(N)=O)NC(=O)[C@@H](NC(=O)CNC(=O)CN)[C@@H](C)O)[C@@H](C)O)C(C)C)[C@@H](C)O)[C@@H](C)O)C(=O)N[C@@H](CC(C)C)C(=O)N1CCC[C@H]1C(=O)N[C@@H](C)C(=O)N1CCC[C@H]1C(=O)N[C@@H](CCCNC(=N)N)C(=O)NCC(=O)N[C@@H](Cc1ccc(O)cc1)C(=O)N1CCC[C@H]1C(=O)NCC(=O)N[C@@H](CCC(N)=O)C(=O)N[C@H](C(=O)N[C@@H](CS)C(=O)N[C@@H](C)C(=O)N[C@@H](CC(N)=O)C(=O)N[C@@H](CC(=O)O)C(N)=O)C(C)C [PAR4-based] (H-GGTQTPSVYDESGSTGGGDDSTPSILPAPRGYPGQVCAND-NH2) |  | > 30 |  | > 30 |  |  | not in post-colitis samples
